Experimental data: patent US7799821B2, “Therapeutic compounds” (Allergan, Inc., priority 2004, dated 2010)

Tests used:
Beagle dogs [1] = test: Ocular surface hyperemia, dogs; type: in vivo; set-up: key: 0.5: <1 trace; 1 mild; 2: moderate; 3: severe; settings: score
Procedure: (§1) Ocular surface hyperemia was visually assessed and scored according to a system typically used clinically.
(§2) Ocular surface hyperemia was evaluated at the same time points as intraocular pressure measurement. It should be noted that untreated dog eyes frequently have a pink/red tone. Thus, values of trace or even mild are not necessarily out of the normal range. Similar tests were used to determine ocular surface hyperemia on monkeys and rabbits.

monkeys = test: Intraocular pressure (IOP) in monkeys; type: in vivo; settings: Conc. 0.10% (0.1%) g/100 mL
rabbits = test: Ocular surface hyperemia, rabbits; type: in vivo; settings: Conc. 0.10% (0.1%) g/100 mL, score
Procedure: as §1, §2

Beagle dogs [2] = test: Intraocular pressure (IOP) in dogs, pneumatonometry; type: in vivo; settings: topical
Procedure: (§3) Intraocular pressure studies in dogs involved pneumatonometry performed in conscious, Beagle dogs of both sexes (10-15 kg). The animals remained conscious throughout the study and were gently restrained by hand. Drugs were administered topically to one eye as a 25 μL volume drop, the other eye received 25 μL vehicle (0.1% (w/v) polysorbate 80; 10 mM TRIS) as a control. Proparacaine (0.1% w/v) was used for corneal anesthesia during tonometry. Intraocular pressure was determined just before drug administration and at 2, 4 and 6 hr thereafter on each day of the 5 day study. Drug was administered immediately after the first IOP reading.
as §3, with “(0.1%” for “(0.1% (w/v)”, “80:10” for “80; 10”, “(0.1%)” for “(0.1% w/v)”

HEP3 = biological target: T1, HEP3 (Homo sapiens, UniProt P43115); test: Radioligand binding, EP3; settings: printed in the HEP3 binding column; read-out: Ki (marked "Ki" in BINDING HEP3)
T1 sequence (P43115 1-390): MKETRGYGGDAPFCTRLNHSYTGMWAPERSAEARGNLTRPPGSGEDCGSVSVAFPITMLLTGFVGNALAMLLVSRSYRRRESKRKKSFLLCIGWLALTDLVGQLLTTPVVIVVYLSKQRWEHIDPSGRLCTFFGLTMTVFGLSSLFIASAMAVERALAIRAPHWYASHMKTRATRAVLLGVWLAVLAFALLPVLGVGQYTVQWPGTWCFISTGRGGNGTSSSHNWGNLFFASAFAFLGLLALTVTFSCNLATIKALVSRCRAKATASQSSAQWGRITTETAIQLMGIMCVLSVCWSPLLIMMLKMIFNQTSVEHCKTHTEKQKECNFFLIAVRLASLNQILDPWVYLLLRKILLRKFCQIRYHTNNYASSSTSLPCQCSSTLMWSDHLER

hEP2/Gqs5 = biological target: T2, hEP2/Gqs5 (Homo sapiens, UniProt P43116); test: FLIPR calcium signal, hEP2; type: cell-based; settings: FLIPR Ca2+ signal, HEK-293(EBNA); read-out: FUNCTIONAL EC50 HEP2
T2 construct: expressed in transfected cells; host or cells: HEK-293(EBNA)
T2 sequence (P43116 whole entry): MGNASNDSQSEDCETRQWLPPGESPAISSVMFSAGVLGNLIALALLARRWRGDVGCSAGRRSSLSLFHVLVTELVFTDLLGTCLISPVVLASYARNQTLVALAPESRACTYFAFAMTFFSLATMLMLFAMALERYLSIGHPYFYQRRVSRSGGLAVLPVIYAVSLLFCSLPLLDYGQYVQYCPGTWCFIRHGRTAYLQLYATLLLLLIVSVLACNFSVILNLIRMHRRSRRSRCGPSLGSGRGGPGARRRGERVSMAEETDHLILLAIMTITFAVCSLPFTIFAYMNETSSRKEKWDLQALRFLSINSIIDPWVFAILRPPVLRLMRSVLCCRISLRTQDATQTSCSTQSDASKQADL
How it was run: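 HEK-293(EBNA) cells stably expressing the recombinant human receptor were loaded with 2 μM Fluo-4 AM for 45 min and read on FLIPR at 37° C in HBSS-HEPES pH 7.4. Peak fluorescence rise was expressed relative to buffer and standard agonist controls (BW245C, PGE2 or U-46619 by receptor); compounds were run 10^−5 to 10^−11 M in duplicate, n≧3.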

SMILES: CCCCCC(=O)c1ccc([C@@H]2[C@@H](C/C=C\CCCC(=O)O)[C@H](Cl)C[C@H]2O)cc1
- DOG Max. hyperemia (Beagle dogs [1]; Conc. 0.10% (0.1%) g/100 mL): 2.0
- MONKEY Max. ΔIOP (mm Hg) (monkeys): 31 mm Hg

SMILES: CCCCCC(=O)c1ccc([C@@H]2[C@@H](C/C=C\CCCC(=O)OC(C)C)[C@H](Cl)C[C@H]2O)cc1
- DOG Max. hyperemia (Beagle dogs [1]; Conc. 0.10% (0.1%) g/100 mL): 0.8
- RABBIT Max. hyperemia (rabbits): 0
- MONKEY Max. ΔIOP (mm Hg) (monkeys): 20 mm Hg

SMILES: CCCCCC(O)c1ccc([C@@H]2[C@@H](C/C=C\CCCC(=O)OC(C)C)[C@H](Cl)C[C@H]2Cl)cc1 (stereo partly drawn)
- DOG Max. ΔIOP (mm Hg) (Beagle dogs [2]; Conc. 0.10% (0.1%) g/100 mL): −12 mm Hg
- DOG Max. hyperemia (Beagle dogs [1]; Conc. 0.10% (0.1%) g/100 mL): 0.6
- RABBIT Max. hyperemia (rabbits): 0.0
- MONKEY Max. ΔIOP (mm Hg) (monkeys): 19 mm Hg

SMILES: CC(C)C(O)c1ccc([C@@H]2[C@@H](C/C=C\CCCC(=O)O)[C@H](Cl)C[C@H]2O)cc1 (stereo partly drawn)
- Ki (HEP3): 1340 nM
- EC50 (hEP2/Gqs5): 497 nM

SMILES: CC(C)C(O)c1ccc([C@@H]2[C@@H](CCCCCCC(=O)O)[C@H](Cl)C[C@H]2O)cc1 (stereo partly drawn)
- Ki (HEP3): 3020 nM
- EC50 (hEP2/Gqs5): > 10000 nM

SMILES: CC(C)(C)c1ccc([C@@H]2[C@@H](CCCCCCC(=O)O)[C@H](Cl)C[C@H]2O)cc1 [drawing 237]
- DOG Max. ΔIOP (mm Hg) (Beagle dogs [2]; Conc. 0.10% (0.1%) g/100 mL): −4 mm Hg
- DOG Max. hyperemia (Beagle dogs [1]; Conc. 0.10% (0.1%) g/100 mL): 0.9
- RABBIT Max. hyperemia (rabbits): 0

SMILES: O=C(O)CCC/C=C\C[C@@H]1[C@@H](c2ccc(C(O)C3CCCCC3)cc2)[C@H](O)C[C@H]1Cl (stereo partly drawn) [drawing 239]
- DOG Max. ΔIOP (mm Hg) (Beagle dogs [2]; Conc. 0.10% (0.1%) g/100 mL): −4 mm Hg
- DOG Max. hyperemia (Beagle dogs [1]; Conc. 0.10% (0.1%) g/100 mL): 1
- RABBIT Max. hyperemia (rabbits): 0

SMILES: CC(C)(CO)c1ccc([C@@H]2[C@@H](C/C=C\CCCC(=O)O)[C@H](Cl)C[C@H]2O)cc1 [drawing 243]
- DOG Max. ΔIOP (mm Hg) (Beagle dogs [2]; Conc. 0.30% g/100 mL): −8 mm Hg
- DOG Max. hyperemia (Beagle dogs [1]; Conc. 0.30% g/100 mL): 0.9
